The target in series [1] is T1, human histamine H3 receptor transfected into CHO cells (Homo sapiens, UniProt Q9Y5N1).
T1 construct: expressed in transfected cells; host or cells: CHO cells
Description: cAMP formation assay, inhibition of R-α-methylhistamine agonism, CHO cells (EIA kit). Type of series: cell-based. Particulars: human H3 in CHO cells, EIA kit (Amersham). The procedure:
The compounds of the invention of formula I were also subjected to a cAMP formation assay, on the human histamine H3 receptor transfected into CHO cells, by inhibition of the agonism caused by the specific binding of R-α-methylhistamine to this receptor, according to the methods described by T. W. Lovenberg et al., in J. Pharmacol. Exp. Ther. 293, 771-778 (2000).
By way of example, compound 15, included in Table 1, has an IC50<10 nM, using an EIA kit (Amersham) to measure cAMP formation, on the human histamine H3 receptor transfected into CHO cells, by inhibition of the agonism caused by the specific binding of R-α-methylhistamine to this receptor.
Background: Cyclic AMP is a second messenger, typically raised through Gs and lowered through Gi signalling.

Series [2] addresses native histamine H3 receptor (Rattus norvegicus, UniProt Q9QYN8). The series can be described thus: in vitro affinity assay on native histamine H3 receptor, [3H]-N-α-methylhistamine binding, adult rat brain membrane preparation. The following applies: rat brain membranes, read-out: Ki with respect to H3 receptors. An excerpt:
More particularly, the compounds of the invention are histamine H3-receptor antagonists. H3 receptors are known to those skilled in the art and their advantage in therapeutics has been described in the literature (“Histamine H3 receptor antagonists” Exp. Opinion Ther. Patents (2000) 10 (7):1045-1055). Thus, the compounds of the invention of formula I were subjected to an in vitro affinity assay on the native histamine H3 receptor in an adult rat brain membrane preparation, by specific binding of [^3H]-N-α-methylhistamine to this receptor, according to the methods described by A. Korte et al., in Biochem. Biophys. Res. Commun. 168, 979-986 (1990) and by R. E. West Jr. et al., in Mol. Pharmacol. 38, 610-613 (1990).

Another series concerns food intake. The series can be described thus: food intake in rats fasting for 24 h. Particulars: 10 mg/kg i.p., during the first hour after administration, rats fasted 24 h. In kind it is in vivo, Wistar rats. The procedure:
Furthermore, the compounds of the invention of formula I were subjected to in vivo tests showing their ability to reduce food intake in rats fasting for 24 h.
The experiments were carried out on Wistar rats. The rats were placed individually in transparent plastic cages 48×26, 5×21.5 cm. These cages were placed in a room insulated against any noise, at a temperature of 20 to 22° C., with a light cycle from 7 o'clock in the morning to 7 o'clock in the evening, the rats having free access to water and to the food.
Before the experiment was carried out, the rats were made to fast for 24 h, with access, however, to water ad libitum. On the day of the experiment, the carrier or the compound according to the present invention was administered i.p. or p.o., 15 or 30 minutes before a known amount of food (30 g) was made available.
Each hour, for 6 hours, the amount of food ingested by the rat was measured.

The structures appear in SMILES notation. Structures can show the parent of a compound that is named as a salt.

T1 sequence (Q9Y5N1 whole entry): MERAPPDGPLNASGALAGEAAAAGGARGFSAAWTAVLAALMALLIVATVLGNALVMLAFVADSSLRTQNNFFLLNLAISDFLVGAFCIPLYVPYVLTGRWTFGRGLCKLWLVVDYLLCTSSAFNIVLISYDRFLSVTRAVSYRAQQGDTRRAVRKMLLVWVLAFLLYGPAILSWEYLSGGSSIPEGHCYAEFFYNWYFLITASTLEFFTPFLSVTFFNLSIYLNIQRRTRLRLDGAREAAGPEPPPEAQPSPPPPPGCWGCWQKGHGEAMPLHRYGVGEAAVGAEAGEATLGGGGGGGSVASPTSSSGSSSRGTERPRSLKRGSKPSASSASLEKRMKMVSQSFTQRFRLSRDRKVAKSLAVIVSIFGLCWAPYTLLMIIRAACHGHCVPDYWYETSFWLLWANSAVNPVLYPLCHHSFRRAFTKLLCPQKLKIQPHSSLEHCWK
native histamine H3 receptor, sequence (Q9QYN8 1-397 isoform Q9QYN8-3): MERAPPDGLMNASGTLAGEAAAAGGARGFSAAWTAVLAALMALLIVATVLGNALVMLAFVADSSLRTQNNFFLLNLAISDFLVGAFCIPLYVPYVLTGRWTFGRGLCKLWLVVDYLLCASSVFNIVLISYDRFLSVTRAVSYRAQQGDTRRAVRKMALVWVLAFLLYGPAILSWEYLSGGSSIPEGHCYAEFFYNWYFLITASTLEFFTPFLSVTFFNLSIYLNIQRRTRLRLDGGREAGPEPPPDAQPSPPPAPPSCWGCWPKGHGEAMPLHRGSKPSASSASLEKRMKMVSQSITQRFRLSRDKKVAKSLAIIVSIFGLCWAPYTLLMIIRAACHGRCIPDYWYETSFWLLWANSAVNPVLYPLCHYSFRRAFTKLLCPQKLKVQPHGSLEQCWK

As for `CN(C)CCCNS(=O)(=O)c1ccc2c(c1)CNCC2` (as salt: hydrochloride), the melting point (as a rule, the temperature, or range, at which the solid turns liquid) fell in the range of 230 to 234 °C.
The molecule `O=S(=O)(NCCCN1CC=CCC1)c1ccc2c(c1)CNCC2` (as salt: hydrochloride) [compound 9, N-[3-(3,6-dihydropyridin-1(2H)-yl)propyl]-1,2,3,4-tetrahydroisoquinoline-7-sulfonamide] registered a melting point above 250 °C.
`O=S(=O)(NCCCN1CC=CC1)c1ccc2c(c1)CNCC2` (as salt: hydrochloride) [compound 13, N-[3-(2,5-dihydro-1H-pyrrol-1-yl)propyl]-1,2,3,4-tetrahydroisoquinoline-7-sulfonamide]: the melting point was 228 to 231 °C.
Same read-out and setting: next, `O=S(=O)(NCCCN1CCN(Cc2ccccc2)CC1)c1ccc2c(c1)CNCC2` (as salt: hydrochloride) [compound 17, N-[3-(4-benzylpiperazin-1-yl)propyl]-1,2,3,4-tetrahydroisoquinoline-7-sulfonamide]: 244 to 249 °C; `O=S(=O)(NCCCN1CCCC1)c1ccc2c(c1)CNCC2` (as salt: hydrochloride) [compound 18, N-(3-pyrrolidin-1-ylpropyl)-1,2,3,4-tetrahydroisoquinoline-7-sulfonamide]: 237 to 241 °C; `O=S(=O)(NCCCN1CCOCC1)c1ccc2c(c1)CNCC2` (as salt: hydrochloride) [compound 19, N-(3-morpholin-4-ylpropyl)-1,2,3,4-tetrahydroisoquinoline-7-sulfonamide]: 238 to 245 °C.
Regarding `CCN(CC)CCCNS(=O)(=O)c1ccc2c(c1)CN(Cc1ccccc1)CC2` (as salt: oxalate) [compound 5, 2-benzyl-N-[3-(diethylamino)propyl]-1,2,3,4-tetrahydroisoquinoline-7-sulfonamide], the melting point was 91 to 95 °C.
The same measure, in the same setting: under `CCN(CC)CCCNS(=O)(=O)c1ccc2c(c1)CN(CC1CC1)CC2` (as salt: oxalate) [compound 6, 2-(cyclopropylmethyl)-N-[3-(diethylamino)propyl]-1,2,3,4-tetrahydroisoquinoline-7-sulfonamide] stands 98 to 103 °C; under `CCN(CC)CCCNS(=O)(=O)c1ccc2c(c1)CN(CC1CCCCC1)CC2` (as salt: oxalate) [compound 7, 2-(cyclohexylmethyl)-N-[3-(diethylamino)propyl]-1,2,3,4-tetrahydroisoquinoline-7-sulfonamide], 144 to 147 °C; under `CCN(CC)CCCNS(=O)(=O)c1ccc2c(c1)CN(C(C)C)CC2` (as salt: oxalate) [compound 10, N-[3-(diethylamino)propyl]-2-isopropyl-1,2,3,4-tetrahydroisoquinoline-7-sulfonamide], 54 to 59 °C.
Still for that read-out and setting: next, `CCN(CC)CCCNS(=O)(=O)c1ccc2c(c1)CN(Cc1cccs1)CC2` (as salt: oxalate) [compound 11, N-[3-(diethylamino)propyl]-2-(2-thienylmethyl)-1,2,3,4-tetrahydroisoquinoline-7-sulfonamide]: 109 to 115 °C; `CCN(CC)CCCNS(=O)(=O)c1ccc2c(c1)CN(Cc1ccsc1)CC2` (as salt: oxalate) [compound 12, N-[3-(diethylamino)propyl]-2-(3-thienylmethyl)-1,2,3,4-tetrahydroisoquinoline-7-sulfonamide]: 89 to 95 °C.
Same read-out and setting: under `CCN(CC)CCCNS(=O)(=O)c1ccc2c(c1)CN(C1CCCCC1)CC2` (as salt: oxalate) [compound 14, 2-cyclohexyl-N-[3-(diethylamino)propyl]-1,2,3,4-tetrahydroisoquinoline-7-sulfonamide] stands 55 to 60 °C; under `CN1CCc2ccc(S(=O)(=O)NCCCN3CC=CC3)cc2C1` (as salt: oxalate) [compound 16, N-[3-(2,5-dihydro-1H-pyrrol-1-yl)propyl]-2-methyl-1,2,3,4-tetrahydroisoquinoline-7-sulfonamide], 99 to 104 °C.
As for `O=S(=O)(NCCCN1CCCC1)c1ccc2c(c1)CN(CC1CCCCC1)CC2` (as salt: oxalate) [compound 21, 2-(cyclohexylmethyl)-N-(3-pyrrolidin-1-ylpropyl)-1,2,3,4-tetrahydroisoquinoline-7-sulfonamide], the melting point was in the range of 130 to 141 °C.
The molecule `CC1CCCCN1CCCNS(=O)(=O)c1ccc2c(c1)CNCC2` (racemic) (as salt: hydrochloride) yielded a melting point of 65 to 70 °C.
In turn, `CN1CCCC1CCNS(=O)(=O)c1ccc2c(c1)CN(CC1CC1)CC2` (racemic) (as salt: oxalate) [compound 22, (+/−)-2-(cyclopropylmethyl)-N-[2-(1-methylpyrrolidin-2-yl)ethyl]-1,2,3,4-tetrahydroisoquinoline-7-sulfonamide] returned a melting point of 50 to 60 °C.
The same measure, in the same setting: next, `CN1CCCC1CCNS(=O)(=O)c1ccc2c(c1)CN(Cc1ccccc1)CC2` (racemic) (as salt: oxalate) [compound 23, (+/−)-2-benzyl-N-[2-(1-methylpyrrolidin-2-yl)ethyl]-1,2,3,4-tetrahydroisoquinoline-7-sulfonamide]: 77 to 82 °C; `CC(C)c1ccc(CN2CCc3ccc(S(=O)(=O)NCCC4CCCN4C)cc3C2)cc1` (racemic) (as salt: oxalate) [compound 24, (+/−)-2-(4-isopropylbenzyl)-N-[2-(1-methylpyrrolidin-2-yl)ethyl]-1,2,3,4-tetrahydroisoquinoline-7-sulfonamide]: 103 to 110 °C; `CN1CCCC1CCNS(=O)(=O)c1ccc2c(c1)CN(Cc1ccc3c(c1)OCO3)CC2` (racemic) (as salt: oxalate) [compound 25, (+/−)-2-(1,3-benzodioxol-5-ylmethyl)-N-[2-(1-methylpyrrolidin-2-yl)ethyl]-1,2,3,4-tetrahydroisoquinoline-7-sulfonamide]: 106 to 109 °C.
For `CN1CCCC1CCNS(=O)(=O)c1ccc2c(c1)CN(Cc1ccc(Br)cc1)CC2` (racemic) (as salt: oxalate) [compound 30, (+/−)-2-(4-bromobenzyl)-N-[2-(1-methylpyrrolidin-2-yl)ethyl]-1,2,3,4-tetrahydroisoquinoline-7-sulfonamide], the melting point was in the range of 86 to 110 °C.
Still for that read-out and setting: next, `COc1ccc(OC)c(CN2CCc3ccc(S(=O)(=O)NCCC4CCCN4C)cc3C2)c1` (racemic) (as salt: oxalate) [compound 31, (+/−)-2-(2,5-dimethoxybenzyl)-N-[2-(1-methylpyrrolidin-2-yl)ethyl]-1,2,3,4-tetrahydroisoquinoline-7-sulfonamide]: 87 to 90 °C.
Still for that read-out and setting: next, `CCC(C)CN1CCc2ccc(S(=O)(=O)NCCC3CCCN3C)cc2C1` (racemic) (as salt: oxalate) [compound 32, (+/−)-2-(2-methylbutyl)-N-[2-(1-methylpyrrolidin-2-yl)ethyl]-1,2,3,4-tetrahydroisoquinoline-7-sulfonamide]: 66 to 77 °C; `COc1cccc(CN2CCc3ccc(S(=O)(=O)NCCC4CCCN4C)cc3C2)c1` (racemic) (as salt: oxalate) [compound 33, (+/−)-2-(3-methoxybenzyl)-N-[2-(1-methylpyrrolidin-2-yl)ethyl]-1,2,3,4-tetrahydroisoquinoline-7-sulfonamide]: 80 to 107 °C; `Cc1cc(C)cc(CN2CCc3ccc(S(=O)(=O)NCCC4CCCN4C)cc3C2)c1` (racemic) (as salt: oxalate) [compound 34, (+/−)-2-(3,5-dimethyl-benzyl)-N-[2-(1-methylpyrrolidin-2-yl)ethyl]-1,2,3,4-tetrahydroisoquinoline-7-sulfonamide]: 121 to 125 °C.
For `CN1CCCC1CCNS(=O)(=O)c1ccc2c(c1)CN(CC1CCCCC1)CC2` (racemic) [compound 15, (+/−)-2-(cyclohexylmethyl)-N-[2-(1-methylpyrrolidin-2-yl)ethyl]-1,2,3,4-tetrahydroisoquinoline-7-sulfonamide], in series [1], the IC50 (commonly the concentration at which inhibition is half-maximal) was below 10 nM. For the same molecule, the Ki (as a rule, a dissociation constant, usually derived from enzyme kinetics or from competition with a known ligand) in series [2] was determined as 0.3 nM.
For the molecule `CC(C)c1ccc(CN2CCc3ccc(S(=O)(=O)NCCC4CCCN4C)cc3C2)cc1` (racemic) [compound 24, (+/−)-2-(4-isopropylbenzyl)-N-[2-(1-methylpyrrolidin-2-yl)ethyl]-1,2,3,4-tetrahydroisoquinoline-7-sulfonamide], the “decrease of food intake” value in the series on food intake is 54%.

These data come from patent US8524700B2, “Tetrahydroisoquinoline sulfonamide derivatives, the preparation thereof, and the use of the same in therapeutics” (Sanofi, priority 2004, dated 2013).
